Assay results from patent US20160215031A1, “METHOD OF TREATING DISORDERS REQUIRING DESTRUCTION OR REMOVAL OF CELLS” (Nymox Pharnaceutical Corporation, priority 2015, published 2016).
Marks after values point to notes of the source that are not given here.

Columns and labels:
patients with BPH [1] = assay: Intraprostatic injection in patients with BPH: difference from baseline International Prostate Symptom Score (Mean IPSS Improvement); type: in vivo, men
Description: (§1) In a study of 978 men, patients with BPH were given an intraprostatic injection of either a) DRUG in phosphate buffered saline pH 7.2 (“PBS”) or b) PBS alone, under double-blind conditions by a urologist in an office setting under ultrasound guidance. Each patient was followed for one year or longer with regular physical examinations, laboratory tests, and evaluations of symptoms. Symptomatic evaluation was measured by the International Prostate Symptom Score (IPSS) which is a quantitative scale used to gauge prostatic symptomatic improvement or worsening. The IPSS quantifies the following: 1) incomplete bladder emptying after urination; 2) frequent urination; 3) stopping and starting during urination; 4) urgent need to urinate; 5) weakness of urinary stream; 6) need to push or strain during urination; 7) need to urinate after going to sleep at night (nocturia). The difference from baseline IPSS was compared in patients who were given DRUG vs patients who received PBS alone. Patients who had no previous history of conventional drug treatment (“treatment naïve”) were compared to patients who had previously failed on other conventional approved drugs such as alpha blockers or 5-alpha reductase inhibitors.
Patients with BPH were given an intraprostatic injection of either a) DRUG in phosphate buffered saline pH 7.2 (“PBS”) or b) PBS alone, under double-blind conditions by a urologist in an office setting under ultrasound guidance. Each patient was followed for one year or longer with regular physical examinations, laboratory tests, and evaluations of symptoms. Symptomatic evaluation was measured by the International Prostate Symptom Score (IPSS) which is a quantitative scale used to gauge prostatic symptomatic improvement or worsening. The IPSS quantifies the following: 1) incomplete bladder emptying after urination; 2) frequent urination; 3) stopping and starting during urination; 4) urgent need to urinate; 5) weakness of urinary stream; 6) need to push or strain during urination; 7) need to urinate after going to sleep at night (nocturia). The difference from baseline IPSS was compared in patients who were given DRUG vs patients who received PBS alone. Patients who had both a) no previous history of conventional drug treatment (“treatment naïve”) and b) their BPH symptoms for <10 years, were compared to patients who had either a) previously failed on other conventional approved drugs such as alpha blockers or 5-alpha reductase inhibitors or b) had their BPH symptoms for >=10 years.
In a study of 978 men, patients with BPH were given an intraprostatic injection of either a) DRUG in phosphate buffered saline pH 7.2 (“PBS”) or b) PBS alone, under double-blind conditions by a urologist in an office setting under ultrasound guidance. Each patient was followed for one year or longer with regular physical examinations, laboratory tests, and evaluations of symptoms. Symptomatic evaluation was measured by the International Prostate Symptom Score (IPSS) which is a quantitative scale used to gauge prostatic symptomatic improvement or worsening. The IPSS quantifies the following: 1) incomplete bladder emptying after urination; 2) frequent urination; 3) stopping and starting during urination; 4) urgent need to urinate; 5) weakness of urinary stream; 6) need to push or strain during urination; 7) need to urinate after going to sleep at night (nocturia). The difference from baseline IPSS at an average of 22 months after treatment was compared in patients who were given DRUG vs patients who received PBS alone. Patients who were followed for only 12 months were imputed a change from 12 months onward equal to the mean of their group. Patients who had no previous history of conventional drug treatment (“treatment naïve”) were compared to patients who had previously failed on other conventional approved drugs such as alpha blockers or 5-alpha reductase inhibitors. […]

patients with BPH [2] = assay: Intraprostatic injection in patients with BPH: proportion of patients worsening by IPSS; type: in vivo, men; set-up: decrease in the proportion of patients worsening over time, compared to the control: concentration or dose not given beside the values
Description: as §1
Patients with BPH were given an intraprostatic injection of either a) DRUG in phosphate buffered saline pH 7.2 (“PBS”) or b) PBS alone, under double-blind conditions by a urologist in an office setting under ultrasound guidance. Each patient was followed for one year with regular physical examinations, laboratory tests, and evaluations of symptoms. Symptomatic evaluation was measured by the International Prostate Symptom Score (IPSS) which is a quantitative scale used to gauge prostatic symptomatic improvement or worsening. The IPSS quantifies the following: 1) incomplete bladder emptying after urination; 2) frequent urination; 3) stopping and starting during urination; 4) urgent need to urinate; 5) weakness of urinary stream; 6) need to push or strain during urination; 7) need to urinate after going to sleep at night (nocturia). The difference from baseline IPSS was compared in patients who were given DRUG vs patients who received PBS alone. Previous treatment naive patients who had BPH history <10 years were compared to patients with previous treatment failure and to patients with BPH history >=10 years.

DRUG: NTP peptide given by intraprostatic injection in PBS pH 7.2; sequence not stated in the examples, probably SEQ ID NO. 66 (IDQQVLSRIKLEIKRCL)
improvement of patients symptomatic for less than 10 years compared to patients symptomatic for more than 10 years (patients with BPH [1]; 12 months (Example 5)): about 40.9% | improvement in treatment naive patients compared to the improvement found in treatment failure patients (patients with BPH [1]; 90 days (Example 1)): ~1,700% | increase in treatment naive patients compared to the improvement found in treatment failure patients (patients with BPH [1]; 90 days (Example 1)): 16.7 fold | Mean IPSS Improvement (patients with BPH [1]; duration of BPH symptoms <10 years, 12 months after treatment): 6.2* | Mean IPSS Improvement (patients with BPH [1]; duration of BPH symptoms ≧10 years, 12 months after treatment): 4.4 | improvement compared to previously treated patients receiving the same drug (patients with BPH [1]; naive <10 years vs previously treated with symptoms for more than 10 years, 22 months (Example 4)): about 61.7% | improvement compared to previously treated patients receiving the same drug (patients with BPH [1]; naive <10 years vs previously treated with symptoms for more than 10 years, 90 days (Example 2)): about 39.7% | improvement compared to previously treated patients receiving the same drug (patients with BPH [1]; naive <10 years vs previously treated, worded 'symptoms for less than 10 years', 22 months (Example 4)): 48.6% | improvement compared to previously treated patients receiving the same drug (patients with BPH [1]; naive <10 years vs previously treated, worded 'symptoms for less than 10 years', 90 days (Example 2)): 35.4% | Mean IPSS Improvement when compared to the control (patients with BPH [1]; naive patients vs PBS, 22 months (Example 3)): about 52.9% | Mean IPSS Improvement when compared to the control (patients with BPH [1]; naive patients vs PBS, 90 days (Example 1)): about 26.5% | Mean IPSS Improvement when compared to the control (patients with BPH [1]; naive patients, BPH symptoms <10 years, vs PBS, after 22 months (Example 4)): about 61.7% | Mean IPSS Improvement (patients with BPH [1]; no previous treatment (treatment naive), 90 days after treatment): 8.6* | Mean IPSS Improvement (patients with BPH [1]; previous BPH treatment (treatment failure), 90 days after treatment): 6.5 | Mean IPSS Improvement (patients with BPH [1]; treatment failure and duration of BPH symptoms ≧10 years, 22 months after treatment): 3.4 | Mean IPSS Improvement (patients with BPH [1]; treatment failure and duration of BPH symptoms ≧10 years, 90 days after treatment): 6.3 | Mean IPSS Improvement when compared to the control (patients with BPH [1]; treatment failure patients vs PBS, 90 days (Example 1)): about 1.5% | Mean IPSS Improvement (patients with BPH [1]; treatment failure, 22 months after treatment): 3.7 | Mean IPSS Improvement (patients with BPH [1]; treatment naive and duration of BPH symptoms <10 years, 22 months after treatment): 5.5* | Mean IPSS Improvement (patients with BPH [1]; treatment naive and duration of BPH symptoms <10 years, 90 days after treatment): 8.8* | Mean IPSS Improvement (patients with BPH [1]; treatment naive, 22 months after treatment): 5.2* | improvement in proportion of patients worsening, treatment naive compared to treatment failure patients (patients with BPH [2]; 12 months (Example 6)): 4.15 fold | reduction of the proportion of patients worsening, treatment naive compared to treatment failure patients (patients with BPH [2]; 12 months (Example 6)): ~420% | Proportion of patients worsening (patients with BPH [2]; IPSS >0 at 12 months, treatment naive): 0.097* | decrease in the proportion of patients worsening over time, treatment naive compared to treatment failure patients (patients with BPH [2]; IPSS >0 at one year (Example 7)): about 55.6% | Proportion of patients worsening (patients with BPH [2]; IPSS >0 at one year, BPH history ≧10 years): .20 | Proportion of patients worsening (patients with BPH [2]; IPSS >0 at one year, treatment naive and BPH symptoms <10 years): .08 | decrease in the proportion of patients worsening over time, treatment naive compared to treatment failure patients (patients with BPH [2]; IPSS >1 at one year (Example 7)): ~50% | Proportion of patients worsening (patients with BPH [2]; IPSS >1 at one year, BPH history ≧10 years): .13 | Proportion of patients worsening (patients with BPH [2]; IPSS >1 at one year, treatment failure): .12 | Proportion of patients worsening (patients with BPH [2]; IPSS >1 at one year, treatment naive and BPH symptoms <10 years): .06 | decrease in the proportion of patients worsening over time, treatment naive compared to treatment failure patients (patients with BPH [2]; IPSS >2 at one year (Example 7)): ~50% | Proportion of patients worsening (patients with BPH [2]; IPSS >2 at one year, BPH history ≧10 years): .10 | Proportion of patients worsening (patients with BPH [2]; IPSS >2 at one year, treatment failure): .08 | Proportion of patients worsening (patients with BPH [2]; IPSS >2 at one year, treatment naive and BPH symptoms <10 years): .04*** | decrease in the proportion of patients worsening over time, compared to the control (patients with BPH [2]; history of BPH for more than 10 years, IPSS >0 at one year (Example 7)): about 4.7% | decrease in the proportion of patients worsening over time, compared to the control (patients with BPH [2]; history of BPH for more than 10 years, IPSS >1 at one year (Example 7)): ~18.8% | decrease in the proportion of patients worsening over time, compared to the control (patients with BPH [2]; history of BPH for more than 10 years, IPSS >2 at one year (Example 7)): ~16.7% | decrease in the proportion of patients worsening over time, compared to the control (patients with BPH [2]; naive patients <10 years, IPSS >0 at one year (Example 7)): about 61.9% | decrease in the proportion of patients worsening over time, compared to the control (patients with BPH [2]; naive patients <10 years, IPSS >1 at one year (Example 7)): ~62.5% | decrease in the proportion of patients worsening over time, compared to the control (patients with BPH [2]; naive patients <10 years, IPSS >2 at one year (Example 7)): ~66.7% | decrease in the proportion of patients worsening over time, compared to the control (patients with BPH [2]; naive patients, IPSS >0 at 12 months (Example 6)): about 51.5% | decrease in the proportion of patients worsening over time, compared to the control (patients with BPH [2]; treatment failure patients, IPSS >0 at 12 months (Example 6)): about 10% | decrease in the proportion of patients worsening over time, compared to the control (patients with BPH [2]; treatment failure patients, IPSS >0 at one year (Example 7)): about 14.3% | decrease in the proportion of patients worsening over time, compared to the control (patients with BPH [2]; treatment failure patients, IPSS >1 at one year (Example 7)): ~25% | decrease in the proportion of patients worsening over time, compared to the control (patients with BPH [2]; treatment failure patients, IPSS >2 at one year (Example 7)): ~33.3%
